Source: patent EP0043274A2, “Antithrombotic treatment” (priority 1980, dated 1982)

System: human platelet rich plasma
Assay: Platelet aggregation in platelet rich plasma, platelet aggregometer (technique of Born)
Format: cell-based
Settings: 1 millimole (mM); induced by optimal concentrations of ADP, collogen, epinephrine, and arachidonic acid
Text: A present preference for purposes of evaluating an - antithrombotic effect is to withdraw samples of blood from a patient undergoing treatment and to measure platelet aggregation. One method is described in the paper by Born in Nature 194, pp. 927-929 (1962), which may be used for this purpose if desired.
That sodium bisulfite is an antiplatelet aggregatory agent is shown by using a platelet aggregometer based on the technique of Born (above cited).
(§1) Platelet rich plasma from rabbit and men was prepared by the centrugation technique referenced in Example 13. Using ADP (adosine diphosphate) as a stimulus rapid aggregation of platelets occurred. […] This procedure is described in the article by Born in Nature, Vol. 194, pgs. 927-929 (1962).
as §1, with “rabbits” for “rabbit”, “diphosphate) arachidonic acid” for “diphosphate)”, “stimulus,” for “stimulus”, “Born,” for “Born in”

Q: Sodium bisulfite was tested. Which platelet aggregation did it give?
A: abolishes platelet aggregation
